Measurements reported in the supplement of paper PMC10307832.

Tests used:
Assay in all cases: relative viability (nuclei count vs DMSO), 5 days (fraction); higher = more cells survive
NCI-H1437 = tested on: NCI-H1437
Method in brief: (§1)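 Lung cancer cell lines, seeded in 1536-well plates, were treated the following day by pin tool with a single drug or with five library-drug doses (not always all listed) in √10 steps on top of a fixed anchor-drug dose. Cells were fixed and nuclei stained in one step after 5 days, and nuclei were counted. Relative viability is the nuclei count for treated wells divided by that for vehicle wells, reported as medians of duplicate plates.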

NCI-H1666 = tested on: NCI-H1666
Method in brief: as §1

NCI-H1975 = tested on: NCI-H1975
Method in brief: as §1

NCI-H23 = tested on: NCI-H23
Method in brief: as §1

NCI-H441 = tested on: NCI-H441
Method in brief: as §1

NCI-H520 = tested on: NCI-H520
Method in brief: as §1

NCI-H596 = tested on: NCI-H596
Method in brief: as §1

NCI-H650 = tested on: NCI-H650
Method in brief: as §1

NCI-H838 = tested on: NCI-H838
Method in brief: as §1

SK-MES-1 = tested on: SK-MES-1
Method in brief: as §1

SW 900 = tested on: SW 900
Method in brief: as §1

COc1cc(N2CCC(C(N)=O)CC2)ccc1Nc1nc(N)c(Cl)c(Nc2ccccc2S(=O)(=O)C(C)C)n1 [HG-5-88-01] + COc1cc2c(Oc3ccc(NC(=O)C4(C(=O)Nc5ccc(F)cc5)CC4)cc3F)ccnc2cc1OCCCN1CCOCC1 [Foretinib] (partner 0.25 µM)
relative viability (NCI-H1437; first compound 1.265 µM): 1.2 | relative viability (NCI-H1437; first compound 4 µM): 1.37 | relative viability (NCI-H1666; first compound 0.04 µM): 1.06 | relative viability (NCI-H1666; first compound 0.1265 µM): 1.06 | relative viability (NCI-H1666; first compound 0.4 µM): 1 | relative viability (NCI-H1666; first compound 1.265 µM): 0.74 | relative viability (NCI-H1666; first compound 4 µM): 0.677 | relative viability (NCI-H1975; first compound 0.04 µM): 1.08 | relative viability (NCI-H1975; first compound 0.1265 µM): 0.923 | relative viability (NCI-H1975; first compound 0.4 µM): 0.814 | relative viability (NCI-H1975; first compound 1.265 µM): 0.916 | relative viability (NCI-H1975; first compound 4 µM): 0.397 | relative viability (NCI-H23; first compound 0.04 µM): 1.08 | relative viability (NCI-H23; first compound 0.1265 µM): 1.06 | relative viability (NCI-H23; first compound 0.4 µM): 0.972 | relative viability (NCI-H23; first compound 1.265 µM): 0.729 | relative viability (NCI-H23; first compound 4 µM): 0.515 | relative viability (NCI-H441; first compound 0.04 µM): 0.889 | relative viability (NCI-H441; first compound 0.1265 µM): 1.06 | relative viability (NCI-H441; first compound 0.4 µM): 1 | relative viability (NCI-H441; first compound 1.265 µM): 0.771 | relative viability (NCI-H441; first compound 4 µM): 0.839 | relative viability (NCI-H520; first compound 0.04 µM): 0.705 | relative viability (NCI-H520; first compound 0.1265 µM): 0.942 | relative viability (NCI-H520; first compound 0.4 µM): 0.629 | relative viability (NCI-H520; first compound 1.265 µM): 0.828 | relative viability (NCI-H520; first compound 4 µM): 0.76 | relative viability (NCI-H596; first compound 0.04 µM): 0.956 | relative viability (NCI-H596; first compound 0.1265 µM): 0.871 | relative viability (NCI-H596; first compound 0.4 µM): 0.801 | relative viability (NCI-H596; first compound 1.265 µM): 0.895 | relative viability (NCI-H596; first compound 4 µM): 0.487 | relative viability (NCI-H650; first compound 0.04 µM): 1.1 | relative viability (NCI-H650; first compound 0.1265 µM): 1.18 | relative viability (NCI-H650; first compound 0.4 µM): 0.949 | relative viability (NCI-H650; first compound 1.265 µM): 0.602 | relative viability (NCI-H650; first compound 4 µM): 0.719 | relative viability (NCI-H838; first compound 0.04 µM): 0.939 | relative viability (NCI-H838; first compound 0.1265 µM): 1.02 | relative viability (NCI-H838; first compound 0.4 µM): 0.797 | relative viability (NCI-H838; first compound 1.265 µM): 0.814 | relative viability (NCI-H838; first compound 4 µM): 0.893 | relative viability (SK-MES-1; first compound 0.04 µM): 0.875 | relative viability (SK-MES-1; first compound 0.1265 µM): 0.808 | relative viability (SK-MES-1; first compound 0.4 µM): 0.827 | relative viability (SK-MES-1; first compound 1.265 µM): 0.684 | relative viability (SK-MES-1; first compound 4 µM): 0.996 | relative viability (SW 900; first compound 0.04 µM): 0.996 | relative viability (SW 900; first compound 0.1265 µM): 1.08 | relative viability (SW 900; first compound 0.4 µM): 0.926 | relative viability (SW 900; first compound 1.265 µM): 0.918 | relative viability (SW 900; first compound 4 µM): 0.493
